# Experimental data published in patent US20140186271A1, “REDUCING DENTAL CARIES” (UNIVERSITY OF ROCHESTER, priority 2011, published 2014).
# Columns and labels:
# Format in all cases: cell-based
# [1] = test system: Streptococcus mutans UA159; test: growth of S. mutans in planktonic culture (optical density at 600 nm, BHI medium); conditions: rich medium, FIG. 1
# Experimental: Bacterial Strain. The strain of Streptococcus mutans used in these experiments is referred to as UA159, the genomic type strain of these organisms (Murchison et al., Infect. Immun. 54(2):273-82 (1986); Ajdic et al., Proc. Natl. Acad. Sci. USA 99(22):14434-9 (2002)). Growth experiments. Two types of growth experiments were conducted: growth of the organism in planktonic culture and growth of the organism in a mono-species biofilm culture. In the planktonic culture experiments, the effects of simvastatin concentration on the growth ability of Streptococcus mutans UA159 was determined. In the second set of experiments, the effects of simvastatin concentration on the ability of S. mutans to produce extracellular polysaccharides (EPS), which is highly related to its ability to grow and survive on the surfaces of teeth (Yamashita et al., Infect. Immun 61(9):3811-7 (1993)), was determined. The planktonic experiments were conducted by growing S. mutans in Brain Heart Infusion medium (BHI) supplemented with specific concentrations of simvastatin dissolved in 1% ethanol/99% water. Simvastatin was obtained from Sigma Chemical Co. (St. Louis, Mo.). Growth was monitored as increasing optical density at 600 nm, using a BioScreen C automated-recording instrument, set at 37° C. and with shaking set at 10 seconds, every 15 minutes, to ensure suspension of the culture (Growth Curves USA, N.J.). […]
# [2] = test system: Klebsiella; test: minimum inhibitory concentration against a panel of human pathogens
# Experimental: (§1) Using well established methodologies, the minimum inhibitory concentration of simvastatin was determined against a panel of human pathogens.
# [3] = test system: E. faecium; test: as above; conditions: Enterococcus faecium
# Experimental: as §1
# [4] = test system: S. aureus; test: as above; conditions: Staphylococcus aureus
# Experimental: as §1
# [5] = test system: S. mutans; test: as above; conditions: Streptococcus mutans
# Experimental: as §1
# [6] = test system: P. aeruginosa; test: as above; conditions: Pseudomonas aeruginosa
# Experimental: as §1
# [7] = test system: E. faecalis; test: as above; conditions: Enterococcus faecalis
# Experimental: as §1
compound,measurement,setting,value
CCC(C)(C)C(=O)O[C@H]1C[C@@H](C)C=C2C=C[C@H](C)[C@H](CC[C@@H]3C[C@@H](O)CC(=O)O3)[C@H]21 [simvastatin],concentration at which growth was effectively halted,[1],≥ 64 µg/mL
same,MIC,[2],64 µg/mL
same,MIC,[3],64 µg/mL
same,MIC,[4],64 µg/mL
same,MIC,[5],16 µg/mL
same,MIC,[6],> 256 µg/mL
same,MIC,[7],64 µg/mL
